The results in this text go back to patent publication US20250306018A1, “METHODS FOR CHARACTERIZING INTERACTIONS BETWEEN ANALYTES” (Nautilus Subsidiary, Inc., priority 2021, published 2025).

This assay concerns serum proteins. Briefly: Binding of fluorescently-labeled detectable probes to a single-analyte array of serum protein conjugates, confocal fluorescent microscopy. More on the design: species or system human. As to conditions: patterned array of serum protein conjugates. From the text:
A blood sample is collected from a human medical subject. A serum fraction containing serum proteins is purified from the blood sample via centrifugation of a whole blood sample obtained from the medical subject and collection of the resulting supernatant. The supernatant includes collected serum proteins as well as several impurities, including trace amounts of clotting factors, vitamins, cofactors, nucleic acids, triglycerides, cholesterols, electrolytes (e.g., Ca^2+, Mg^2+, Na^+, K^+, Fe^2+, etc.), trace amounts of non-human antigens (e.g, viral antigens), and trace amounts of the medical subject's prescribed pharmaceuticals. The fraction containing the extracted serum proteins is modified to incorporate a transcyclooctene (TCO) moiety at some of the amine-containing amino acid sidechain of the present proteins. Each modified serum protein is conjugated to a structured nucleic acid particle (SNAP) containing a methyltetrazine (mTz) attachment moiety via a TCO-mTz Click-type reaction to form a plurality of serum protein conjugates. Certain impurities are also conjugated to SNAPs due to cross-reactivity with functionalization reagents and/or methyltetrazine. […]
The patterned array of serum protein conjugates is characterized by cyclical binding of affinity reagents. […] Identities of serum proteins are determined for […] of addresses on the array to beyond a confidence level of 99.9%. […]

As for VEGF, the “polypeptide species bound by the detectable probe” value (addresses with identified serum albumin excluded) was “fewer polypeptide species”. Besides, the “binding affinity of the detectable probe for bound polypeptide species” value (judged by repeatability of observed binding) is given as “low degree of binding affinity”.
